The source of these data is patent publication US11208400B2, “Substituted 6-(1H-pyrazol-1-yl)pyrimidin-4-amine derivatives and uses thereof” (Bayer Aktiengesellschaft, priority 2016, dated 2021).

In the experiment the target is T1, human Npt2a (Homo sapiens, UniProt Q06495).
T1 construct: expressed in transfected cells
T1 sequence (Q06495 1-639): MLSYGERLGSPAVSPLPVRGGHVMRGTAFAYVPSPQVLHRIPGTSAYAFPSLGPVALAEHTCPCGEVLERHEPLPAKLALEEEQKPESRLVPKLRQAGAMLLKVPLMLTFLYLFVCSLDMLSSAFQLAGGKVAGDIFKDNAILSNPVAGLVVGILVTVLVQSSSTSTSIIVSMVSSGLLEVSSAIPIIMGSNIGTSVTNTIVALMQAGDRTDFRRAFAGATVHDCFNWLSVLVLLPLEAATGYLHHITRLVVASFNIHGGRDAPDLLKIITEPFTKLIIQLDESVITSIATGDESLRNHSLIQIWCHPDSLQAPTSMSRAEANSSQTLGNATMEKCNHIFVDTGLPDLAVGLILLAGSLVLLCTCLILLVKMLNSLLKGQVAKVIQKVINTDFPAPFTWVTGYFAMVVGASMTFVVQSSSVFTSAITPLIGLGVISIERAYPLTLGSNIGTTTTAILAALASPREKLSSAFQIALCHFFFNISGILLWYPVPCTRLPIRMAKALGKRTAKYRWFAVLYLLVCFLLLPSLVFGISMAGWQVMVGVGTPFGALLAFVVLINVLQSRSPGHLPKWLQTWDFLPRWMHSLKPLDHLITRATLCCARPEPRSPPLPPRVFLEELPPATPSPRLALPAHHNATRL
Kind of experiment: Npt2a activity cell based assay, membrane potential dye, CHO T-REx hNpt2a cells. As to conditions: doxycycline-induced, depolarization by sodium phosphate influx, average or median values if tested more than once. The gist of the method:
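Doxycycline-induced (0.5 μg/mL, 24 h) CHO T-REx cells were loaded with membrane potential dye in sodium-free NHE buffer (pH 7.4) and exposed to compound (50 μM–1 nM, 5 min, room temperature).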
As usually defined, the IC50 is the concentration that inhibits the measured activity by half. High values mean weaker potency in that assay, low ones greater potency in that assay. Molecule `Cc1nn(-c2cc(Nc3c(C)c(-c4ccc(C(F)(F)F)nc4)nn3C)ncn2)c(C)c1Cl` [Example 550, 6-(4-chloro-3,5-dimethyl-1H-pyrazol-1-yl)-N-{1,4-dimethyl-3-[6-(trifluoromethyl)pyridin-3-yl]-1H-pyrazol-5-yl}pyrimidin-4-amine] gave a 50% inhibitory concentration (IC50) of 500 nM. Take `COc1c(C)nn(-c2cc(Nc3c(C)c(-c4ccc(C(F)(F)F)nc4)nn3C)ncn2)c1C` [Example 551, N-{1,4-dimethyl-3-[6-(trifluoromethyl)pyridin-3-yl]-1H-pyrazol-5-yl}-6-(4-methoxy-3,5-dimethyl-1H-pyrazol-1-yl)pyrimidin-4-amine]: the IC50 was 1900 nM. Take `Cc1cc(C(F)F)n(-c2cc(Nc3nn(C)c(-c4ccc(C(F)(F)F)nc4)c3C)ncn2)n1` [Example 552, 6-[5-(difluoromethyl)-3-methyl-1H-pyrazol-1-yl]-N-{1,4-dimethyl-5-[6-(trifluoromethyl)pyridin-3-yl]-1H-pyrazol-3-yl}pyrimidin-4-amine]: inhibition was half-maximal at 15 nM (IC50). This IC50 lies about 130-fold lower than the previous one. Under `Cc1nn(-c2cc(Nc3nn(C)c(-c4ccc(C(F)(F)F)nc4)c3C)ncn2)c(C)c1Cl` [Example 553, 6-(4-chloro-3,5-dimethyl-1H-pyrazol-1-yl)-N-{1,4-dimethyl-5-[6-(trifluoromethyl)pyridin-3-yl]-1H-pyrazol-3-yl}pyrimidin-4-amine] stands 7.2 nM; under `COCCn1nc(-c2ccc(C#N)cc2)c(C)c1Nc1cc(-n2nc(C)cc2C(F)F)ncn1` [Example 554, 4-[5-({6-[5-(difluoromethyl)-3-methyl-1H-pyrazol-1-yl]pyrimidin-4-yl}amino)-1-(2-methoxyethyl)-4-methyl-1H-pyrazol-3-yl]benzonitrile], 1.9 nM.

For `COCCn1nc(-c2ccc(C#N)cc2)c(C)c1Nc1cc(-n2nc(C)cc2C)ncn1` [Example 555, 4-[5-{[6-(3,5-dimethyl-1H-pyrazol-1-yl)pyrimidin-4-yl]amino}-1-(2-methoxyethyl)-4-methyl-1H-pyrazol-3-yl]benzonitrile], the IC50 was 1.6 nM. Under `COC(=O)Nc1c(C)nn(-c2cc(Nc3c(C)c(-c4ccc(F)cc4)nn3CC3CC3)ncn2)c1C` [Example 556, methyl [1-(6-{[1-(cyclopropylmethyl)-3-(4-fluorophenyl)-4-methyl-1H-pyrazol-5-yl]amino}pyrimidin-4-yl)-3,5-dimethyl-1H-pyrazol-4-yl]carbamate] stands 810 nM. Under `COCCn1nc(-c2ccc(F)cn2)c(C)c1Nc1cc(-n2nc(C)c(C(=O)N(C)C)c2C)ncn1` [Example 557, 1-(6-{[3-(5-fluoropyridin-2-yl)-1-(2-methoxyethyl)-4-methyl-1H-pyrazol-5-yl]amino}pyrimidin-4-yl)-N,N,3,5-tetramethyl-1H-pyrazole-4-carboxamide] stands 1000 nM. Regarding `COCCn1nc(-c2ccc(C(F)F)cc2)c(C)c1Nc1cc(-n2nc(C)c(C(=O)N(C)C)c2C)ncn1` [Example 558, 1-[6-({3-[4-(difluoromethyl)phenyl]-1-(2-methoxyethyl)-4-methyl-1H-pyrazol-5-yl}amino)pyrimidin-4-yl]-N,N,3,5-tetramethyl-1H-pyrazole-4-carboxamide], half-maximal inhibition (IC50) required 80 nM. `Cc1cc(C)n(-c2cc(Nc3nn(C)c(-c4ccc(C(F)(F)F)nc4)c3C)ncn2)n1` [Example 559, 6-(3,5-dimethyl-1H-pyrazol-1-yl)-N-{1,4-dimethyl-5-[6-(trifluoromethyl)pyridin-3-yl]-1H-pyrazol-3-yl}pyrimidin-4-amine] showed an IC50 of 110 nM.
